{"source": "patent US8076103B2", "about": "“Eukaryotic expression system for the incorporation of stable isotopes into proteins” (The Board of Trustees of the Leland Stanford Junior …, priority 2007, dated 2011)", "molecular_target": "T1, human β2AR (Homo sapiens, UniProt P07550)", "T1 construct": "made in house; host or cells: Trichoplusia ni larvae orally infected with occluded recombinant baculovirus; crude membrane fraction", "T1 sequence (P07550 whole entry)": "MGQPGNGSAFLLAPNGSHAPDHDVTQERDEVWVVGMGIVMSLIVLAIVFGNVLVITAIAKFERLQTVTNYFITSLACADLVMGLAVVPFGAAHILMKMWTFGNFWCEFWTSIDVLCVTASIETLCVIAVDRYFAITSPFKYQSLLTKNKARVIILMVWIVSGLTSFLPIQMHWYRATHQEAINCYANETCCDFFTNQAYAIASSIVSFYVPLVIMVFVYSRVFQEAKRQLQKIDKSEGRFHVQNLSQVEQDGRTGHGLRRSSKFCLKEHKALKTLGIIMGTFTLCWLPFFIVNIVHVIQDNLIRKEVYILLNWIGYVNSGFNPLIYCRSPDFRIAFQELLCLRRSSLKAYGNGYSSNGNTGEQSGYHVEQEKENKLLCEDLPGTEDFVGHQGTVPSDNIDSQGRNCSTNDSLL", "experiment": "Saturation binding of [^3H]-dihydroalprenolol to T. ni membranes expressing β2AR", "details": "4 days after oral infection", "method": "This vector was used to produce orally infectious occluded baculovirus as follows. Sf9 cells were infected with above vector and allowed to grow for approximately four days until their nuclei were filled with polyhedral inclusion bodies (PIBs). The cells were pelleted by centrifugation, and lysed by resuspension and douncing in SDS (0.5%). PIBs were pelleted from the lysate by a high-speed spin, washed with sodium chloride (500 mM), and resuspended in distilled water. T. ni larvae were infected with occluded baculovirus by applying drops of purified PIBs (˜10^7 PIBs per cube) to small cubes of insect diet. Newly molted 5th instar larvae (mass ˜100 mg) were starved for 6 hours and then permitted to feed on the infected diet. […] These larvae were frozen in liquid nitrogen and stored at −80° C. Larvae were subsequently lysed and a crude membrane fraction was prepared. Saturation binding was performed with [^3H]dihydroalprenolol, a βAR antagonist."}
{"compound": "CCCc1ccccc1OCC(O)CNC(C)C", "note": "(centres unmarked) [[^3H]-dihydroalprenolol]", "values": [{"measurement": "Bmax", "value": 16, "unit": "pmol/mg total protein"}, {"measurement": "Kd", "value": 1.6, "unit": "nM"}]}
